# Measurements as given in patent US5852213A, “Mercaptoketones and mercaptoalcohols and a process for their preparation” (American Cyanamid Company, priority 1997, dated 1998).
# Key:
# [1] = tested on: stromelysin; settings: PCT application WO 9407481; cited from earlier work
# [2] = tested on: Collangenase I; assay: In vivo MMP Inhibition (enzyme in implanted dialysis tubing); set-up: species or system rat (Sprague-Dawley) or mouse (CD-1)
# Protocol: A 2 cm piece of dialysis tubing (molecular weight cut-off 12-14,000, 10 mm flat width) containing matrix metalloproteinase enzyme (stromelysin, collagenase or gelatinase in 0.5 mL of buffer) is implanted either ip or sc (in the back) of a rat (Sprague-Dawley, 150-200 g) or mouse (CD-1, 25-50 g) under anesthesia. Drugs are administered PO, IP, SC or IV through a canula in the jugular vein. Drugs are administered in a dose volume of 0.1 to 0.25 mL/animal. Contents of the dialysis tubing is collected and enzyme activity assayed.
# Enzyme reaction rates for each dialysis tube are calculated. Tubes from at least 3 different animals are used to calculate the mean±sem. Statistical significance (p<0.05) of vehicle-treated animals versus drug-treated animals is determined by analysis of variance. (Agents and Actions 21: 331, 1987)
# [3] = tested on: human recombinant stromelysin; assay: Stromelysin Inhibition in vitro; type: biochemical
# Protocol: Stromelysin Inhibition in vitro.
# The increase in OD405 is plotted and the slope of the line is calculated which represents the reaction rate.
# (§1) The linearity of the reaction rate is confirmed (r^2 >0.85). The mean of the control rate is calculated and compared for statistical significance (p<0.05) with drug-treated rates using Dunnett's multiple comparison test.
# [4] = tested on: MMP; settings: EP 0322,184 A2; cited from earlier work
# [5] = molecular target: T1, human recombinant fibroblast collagenase (Homo sapiens, UniProt P03956); assay: Collagenase Inhibition in vitro; type: biochemical; settings: read-out: Collagenase IC50 (nM) or % inhibition: % inhibition
# T1 construct: human recombinant fibroblast collagenase (truncated, mw 18,828, WAR, Radnor)
# T1 sequence (P03956 100-269 limits assumed): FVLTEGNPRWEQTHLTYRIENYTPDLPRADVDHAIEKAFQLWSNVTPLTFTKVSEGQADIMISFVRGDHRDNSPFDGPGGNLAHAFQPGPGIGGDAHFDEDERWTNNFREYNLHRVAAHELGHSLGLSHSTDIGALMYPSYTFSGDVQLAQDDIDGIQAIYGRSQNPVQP
# Protocol: Collagenase Inhibition in vitro
# The assay is based on the cleavage of a peptide substrate ((Dnp-Pro-Cha-Gly-Cys(Me)-His-Ala-Lys(NMa)-NH2), Peptide International, Inc.) by collagenase releasing the fluorescent NMa group which is quantitated on the fluorometer. Dnp quenches the NMa fluorescence in the intact substrate. […] Substrate is dissolved in methanol and stored frozen in 1 mM aliquots. […] For the assay, substrate is dissolved in HCBC buffer to a final concentration of 10 μM and collagenase to a final concentration of 5 nM. Compounds are dissolved in methanol, DMSO, or HCBC. The methanol and DMSO are diluted in HCBC to <1%. Compounds are added to the 96 well plate containing enzyme and the reaction is started by the addition of substrate.
# The slope of the line is calculated and represents the reaction rate.
# as §1
compound,measurement,setting,value
CC(C)C[C@H](NC(=O)[C@@H](CS)CCc1ccccc1)C(=O)Nc1ccccc1,inhibitor of the MMP stromelysin,[1],moderate inhibitor
"CCCCCCC[C@H](C[C@H](O)CS)C(=O)N[C@H](C(=O)NC)C(C)(C)C [Example 38, (2R)-2-((2S)-2-Hydroxy-3-mercaptopropyl)nonanoic acid ((1S)-2,2-dimethyl-l-methylcarbamoylpropyl)amide]",in vivo % Collangenase I inhibition,[2]; 50 mpk (milligrams/kilogram),22.2%
same,Stromelysin IC50 (nM) or % inhibition: % inhibition,[3]; @ 0.1 μM,96%
CNC(=O)[C@H](Cc1ccc(OC)cc1)NC(=O)[C@H](CC(C)C)C(S)CC(C)=O (some centres unmarked) [compound where P is 2-oxopropyl],times more potent than the compound where P is methyl,[4],approximately 20 times
"CCCCCCC[C@H](C[C@@H](O)CS)C(=O)N[C@H](C(=O)NC)C(C)(C)C [Example 37, (2R)-2-((2R)-2-Hydroxy-3-mercaptopropyl)nonanoic acid ((1S)-2,2-dimethyl-1-methylcarbamoylpropyl)amide]",inhibition at 1 µM,[5],72%
CNC(=O)[C@H](Cc1ccc(OC)cc1)NC(=O)[C@H](CC(C)C)C(C)S (some centres unmarked) [compound where P is methyl],times more potent than the compound where P is hydrogen,[4],approximately 20 times
"CNC(=O)[C@@H](NC(=O)[C@@H](CC(=O)CS)CC(C)C)C(C)(C)C [Example 44, (2R)-2-Isobutyl-5-mercapto-4-oxopentanoic acid ((1S)-2,2-dimethyl-1-methylcarbamoylpropyl)amide]",in vivo % Collangenase I inhibition,[2]; 60 mpk (milligrams/kilogram),4.8%
same,Stromelysin IC50 (nM) or % inhibition: % inhibition,[3]; @ 1 μM,58%
"CCCCCCC[C@H](CC(=O)CS)C(=O)N[C@H](C(=O)NC)C(C)(C)C [Example 43, (2R)-2-(3-Mercapto-2-oxopropyl)nonanoic acid ((1S)-2,2-dimethyl-1-methylcarbamoylpropyl)amide]",in vivo % Collangenase I inhibition,[2]; 50 mpk (milligrams/kilogram),0.73%
same,IC50,[3]; read-out: Stromelysin IC50 (nM) or % inhibition: IC50,28 nM
"CNC(=O)[C@@H](NC(=O)[C@H](CC(C)C)C[C@H](O)CS)C(C)(C)C [Example 40, (2R,4S)-4-Hydroxy-2-isobutyl-5-mercaptopentanoic acid ((1S)-2,2-dimethyl-1-methylcarbamoylpropyl)amide]",in vivo % Collangenase I inhibition,[2]; 50 mpk (milligrams/kilogram),84.8%
"CNC(=O)[C@@H](NC(=O)[C@H](CC(C)C)C[C@@H](O)CS)C(C)(C)C [Example 39, (2R,4R)-4-Hydroxy-2-isobutyl-5-mercaptopentanoic acid ((1S)-2,2-dimethyl-1-methylcarbamoylpropyl)amide]",in vivo % Collangenase I inhibition,[2]; 50 mpk (milligrams/kilogram),20.4%
same,Stromelysin IC50 (nM) or % inhibition: % inhibition,[3]; @ 300 nM,6%
"(2R,4R)-4-Hydroxy-2-isobutyl-5-tritylsulfanylpentanoic acid ((1S)-2,2-dimethyl-1-methylcarbamoylpropyl)amide [Example 35]",in vivo % Collangenase I inhibition,[2]; 50 mpk (milligrams/kilogram),0.44%
